{"source": "patent US8114895B2", "about": "“Use of bipyridine compound ‘Caerulomycin A’ derivatives and analogs thereof as immunosuppressive agents” (Council of Science and Industrial Research, priority 2005, dated 2012)", "key": {"[1]": {"tested_on": "thymocytes", "test": "Expression of CD69 on mouse thymocytes", "type": "cell-based, BALB/c mice", "settings": "ConA 1 and 5 μg/ml, 24 h", "description": "The expression of CD69 was detected on the surface of thymocytes in the presence of Caerulomycin A. Thymocytes were obtained from 3-4 weeks old BALB/c mice. Thymocytes (4×10^6 cells/well) were stimulated with 1 μg/ml and 5 μg/ml of ConA for 24 h in the presence and absence of Caerulomycin A at 37° C. The cells were stained with PE labeled anti-mouse CD69 Ab. The stained cells were acquired on a FACScan as mentioned in the case of CD28/CTLA-4."}, "[2]": {"tested_on": "calcium dependent pathway", "test": "Proliferation by the calcium dependent (PMA+Lonomycin) pathway", "type": "cell-based", "settings": "48 h", "description": "Cells were seeded at 5×10^4 cells/well in flat-bottom 96-well plates. The various stimuli and Caerulomycin A were added at the initiation of the cultures. After 48 h, [^3H]-thymidine (1 μCi/well) was added, and its incorporation was measured 12 h later."}}, "data": [{"molecule": "COc1cc(/C=N/O)nc(-c2ccccn2)c1", "note": "[Caerulomycin A, (E)-4-methoxy-2,2′-bipyridine-6-carbaldehyde oxime]", "values": [{"measurement": "expression of CD69", "setting": "[1]", "result": "no change in the expression"}, {"measurement": "proliferation of calcium dependent pathway", "setting": "[2]", "result": "significantly inhibited the proliferation"}]}]}
